Assay [1] deals with human GLP-1 receptor (GLP-1R) (Homo sapiens, UniProt P43220). Nature of the assay: cAMP pharmacological functional assay in presence of casein, hGLP-1R. Type of assay: cell-based. The conditions noted are these: HEK293 cells expressing hGLP-1R, 0.1% Casein, geometric mean; read-out: hGLP1R cAMP Rel EC50 nM (SEM, n).
Assay [2] deals with T1, gastric inhibitory peptide receptor (GIPR) (Homo sapiens, UniProt P48546).
T1 sequence (P48546 22-466): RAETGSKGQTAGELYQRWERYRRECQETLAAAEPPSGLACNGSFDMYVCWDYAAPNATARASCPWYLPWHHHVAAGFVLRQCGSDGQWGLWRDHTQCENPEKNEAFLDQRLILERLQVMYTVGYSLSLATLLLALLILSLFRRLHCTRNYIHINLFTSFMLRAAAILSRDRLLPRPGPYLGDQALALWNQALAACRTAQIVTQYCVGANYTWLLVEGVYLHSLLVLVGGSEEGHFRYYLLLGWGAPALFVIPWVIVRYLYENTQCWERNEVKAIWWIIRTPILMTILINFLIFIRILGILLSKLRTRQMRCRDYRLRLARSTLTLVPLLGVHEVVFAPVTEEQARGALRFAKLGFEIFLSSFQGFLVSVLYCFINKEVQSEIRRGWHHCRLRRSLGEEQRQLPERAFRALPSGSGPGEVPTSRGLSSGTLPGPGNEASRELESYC
As to the kind of experiment: cAMP pharmacological functional assay in presence of casein, hGIPR. The assay is classed as cell-based. Conditions: HEK293 cells expressing hGIPR, 0.1% Casein, geometric mean; read-out: hGIPR cAMP Rel EC50 nM (SEM, n).

Numbered stars: 1 amine (or outer) side, 2 acyl side, 3 side chain; on linkers, the order of the positions; unused ones are H or OH. Square brackets hold non-standard residues; d marks the D form. Side chains are listed from the residue outwards. Peptide text beside a SMILES is read from it. * marks the point of attachment. C20 diacid = O=C(O)CCCCCCCCCCCCCCCCCCC(=O)*; αMePhe(2-F) = C[C@](N)(Cc1ccccc1F)C(=O)O; γGlu = O=C(O)[C@H](CCC(=O)[*:2])N[*:1]; αMeF = C[C@](N)(Cc1ccccc1)C(=O)O; 3Pal = N[C@@H](Cc1cccnc1)C(=O)O; αMeL = CC(C)C[C@](C)(N)C(=O)O; AEEA = NCCOCCOCC(=O)O; Aib = CC(C)(N)C(=O)O

Sequence of human GLP-1 receptor (GLP-1R) (P43220 24-463): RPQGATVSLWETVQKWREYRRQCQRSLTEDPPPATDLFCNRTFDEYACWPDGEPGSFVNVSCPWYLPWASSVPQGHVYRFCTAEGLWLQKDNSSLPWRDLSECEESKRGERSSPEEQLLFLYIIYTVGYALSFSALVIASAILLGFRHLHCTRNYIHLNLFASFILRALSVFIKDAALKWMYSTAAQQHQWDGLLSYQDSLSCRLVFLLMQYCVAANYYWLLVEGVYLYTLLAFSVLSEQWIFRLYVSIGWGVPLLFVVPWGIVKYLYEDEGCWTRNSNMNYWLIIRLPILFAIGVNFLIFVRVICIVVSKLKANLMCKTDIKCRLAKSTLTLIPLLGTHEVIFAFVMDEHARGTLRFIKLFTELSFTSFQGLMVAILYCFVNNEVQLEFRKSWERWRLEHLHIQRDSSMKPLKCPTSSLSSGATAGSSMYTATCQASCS

With `CC[C@H](C)[C@H](NC(=O)[C@H](CC(C)C)NC(=O)[C@H](Cc1ccc(O)cc1)NC(=O)[C@H](CCC(=O)O)NC(=O)[C@@H](NC(=O)[C@H](Cc1ccccc1)NC(=O)[C@H](C)NC(=O)C(C)(C)NC(=O)[C@H](CCC(N)=O)NC(=O)[C@H](C)NC(=O)[C@H](CCCCNC(=O)COCCOCCNC(=O)COCCOCCNC(=O)CC[C@H](NC(=O)CCCCCCCCCCCCCCCCCCC(=O)O)C(=O)O)NC(=O)[C@H](CCCCN)NC(=O)[C@H](CC(=O)O)NC(=O)[C@H](CC(C)C)NC(=O)[C@H](CC(C)C)NC(=O)[C@@H](NC(=O)[C@H](CO)NC(=O)[C@H](Cc1cccnc1)NC(=O)[C@H](CC(=O)O)NC(=O)[C@H](CO)NC(=O)[C@@H](NC(=O)[C@](C)(Cc1ccccc1)NC(=O)[C@@H](NC(=O)CNC(=O)[C@H](CCC(=O)O)NC(=O)C(C)(C)NC(=O)[C@@H](N)Cc1ccc(O)cc1)[C@@H](C)O)[C@@H](C)O)[C@@H](C)CC)[C@@H](C)CC)C(=O)N[C@@H](CCC(=O)O)C(=O)NCC(=O)NCC(=O)N1CCC[C@H]1C(=O)N[C@@H](CO)C(=O)N[C@@H](CO)C(=O)NCC(=O)N[C@@H](C)C(=O)N1CCC[C@H]1C(=O)N1CCC[C@H]1C(=O)N1CCC[C@H]1C(=O)N[C@@H](CO)C(N)=O` [Example 132] (H-Y[Aib]EGT[αMeF]TSD[3Pal]SILLDKK([AEEA-AEEA-γGlu-C20 diacid])AQ[Aib]AFIEYLIEGGPSSGAPPPS-NH2), the values for the EC50 in assay [1] and in assay [2] were 0.26 nM and 0.0657 nM, respectively.
The matching figures for `CC[C@H](C)[C@H](NC(=O)[C@H](CC(C)C)NC(=O)[C@H](Cc1ccc(O)cc1)NC(=O)[C@H](CCC(=O)O)NC(=O)[C@@H](NC(=O)[C@H](Cc1ccccc1)NC(=O)[C@H](C)NC(=O)C(C)(C)NC(=O)[C@H](CCC(N)=O)NC(=O)[C@H](C)NC(=O)[C@H](CCCCNC(=O)COCCOCCNC(=O)COCCOCCNC(=O)CC[C@H](NC(=O)CCCCCCCCCCCCCCCCCCC(=O)O)C(=O)O)NC(=O)[C@H](CCCCN)NC(=O)[C@H](CC(=O)O)NC(=O)[C@H](CC(C)C)NC(=O)[C@H](CC(C)C)NC(=O)[C@@H](NC(=O)[C@H](CO)NC(=O)[C@H](C)NC(=O)[C@H](CC(=O)O)NC(=O)[C@H](CO)NC(=O)[C@@H](NC(=O)[C@H](Cc1ccccc1)NC(=O)[C@@H](NC(=O)CNC(=O)[C@H](CCC(=O)O)NC(=O)C(C)(C)NC(=O)[C@@H](N)Cc1ccc(O)cc1)[C@@H](C)O)[C@@H](C)O)[C@@H](C)CC)[C@@H](C)CC)C(=O)N[C@@H](CCC(=O)O)C(=O)N[C@@H](C)C(=O)NCC(=O)N1CCC[C@H]1C(=O)N[C@@H](CO)C(=O)N[C@@H](CO)C(=O)NCC(=O)N[C@@H](C)C(=O)N1CCC[C@H]1C(=O)N1CCC[C@H]1C(=O)N1CCC[C@H]1C(=O)N[C@@H](CO)C(N)=O` [Example 136] (H-Y[Aib]EGTFTSDASILLDKK([AEEA-AEEA-γGlu-C20 diacid])AQ[Aib]AFIEYLIEAGPSSGAPPPS-NH2): 0.06 nM and 3.39 nM.
`CC[C@H](C)[C@H](NC(=O)[C@H](CC(C)C)NC(=O)[C@H](Cc1ccc(O)cc1)NC(=O)[C@H](CCC(=O)O)NC(=O)[C@@H](NC(=O)[C@H](Cc1ccccc1)NC(=O)[C@@H](NC(=O)C(C)(C)NC(=O)[C@H](CCC(N)=O)NC(=O)[C@H](C)NC(=O)[C@H](CCCCNC(=O)COCCOCCNC(=O)COCCOCCNC(=O)CC[C@H](NC(=O)CCCCCCCCCCCCCCCCCCC(=O)O)C(=O)O)NC(=O)[C@H](CCCCN)NC(=O)[C@H](CC(=O)O)NC(=O)[C@H](CC(C)C)NC(=O)[C@](C)(CC(C)C)NC(=O)[C@@H](NC(=O)[C@H](CO)NC(=O)[C@H](Cc1ccc(O)cc1)NC(=O)[C@H](CC(=O)O)NC(=O)[C@H](CO)NC(=O)[C@@H](NC(=O)[C@](C)(Cc1ccccc1)NC(=O)[C@@H](NC(=O)CNC(=O)[C@H](CCC(=O)O)NC(=O)C(C)(C)NC(=O)[C@@H](N)Cc1ccc(O)cc1)[C@@H](C)O)[C@@H](C)O)[C@@H](C)CC)[C@@H](C)CC)[C@@H](C)CC)C(=O)N[C@@H](CCC(=O)O)C(=O)NCC(=O)NCC(=O)N1CCC[C@H]1C(=O)N[C@@H](CO)C(=O)N[C@@H](CO)C(=O)NCC(=O)N[C@@H](C)C(=O)N1CCC[C@H]1C(=O)N1CCC[C@H]1C(=O)N1CCC[C@H]1C(=O)N[C@@H](CO)C(N)=O` [Example 141] (H-Y[Aib]EGT[αMeF]TSDYSI[αMeL]LDKK([AEEA-AEEA-γGlu-C20 diacid])AQ[Aib]IFIEYLIEGGPSSGAPPPS-NH2; N-terminus assumed): the EC50 (as a rule, the concentration giving half of the maximal effect) in assay [1] is 0.0975 nM; in assay [2] it was 0.2 nM.
The matching figures for `CC[C@H](C)[C@H](NC(=O)[C@H](CC(C)C)NC(=O)[C@H](Cc1ccc(O)cc1)NC(=O)[C@H](CCC(N)=O)NC(=O)[C@@H](NC(=O)[C@H](Cc1ccccc1)NC(=O)[C@H](CCC(=O)O)NC(=O)C(C)(C)NC(=O)[C@H](CCC(N)=O)NC(=O)[C@H](C)NC(=O)[C@H](CCCCNC(=O)COCCOCCNC(=O)COCCOCCNC(=O)CC[C@H](NC(=O)CCCCCCCCCCCCCCCCCCC(=O)O)C(=O)O)NC(=O)[C@H](CCC(=O)O)NC(=O)[C@H](CC(=O)O)NC(=O)[C@H](CC(C)C)NC(=O)[C@](C)(CC(C)C)NC(=O)[C@@H](NC(=O)[C@H](CO)NC(=O)[C@H](Cc1ccc(O)cc1)NC(=O)[C@H](CC(=O)O)NC(=O)[C@H](CO)NC(=O)[C@@H](NC(=O)[C@](C)(Cc1ccccc1F)NC(=O)[C@@H](NC(=O)CNC(=O)[C@H](CCC(=O)O)NC(=O)C(C)(C)NC(=O)[C@@H](N)Cc1ccc(O)cc1)[C@@H](C)O)[C@@H](C)O)[C@@H](C)CC)[C@@H](C)CC)C(=O)N[C@@H](CCC(=O)O)C(=O)NCC(=O)NCC(=O)N1CCC[C@H]1C(=O)N[C@@H](CO)C(=O)N[C@@H](CO)C(=O)NCC(=O)N[C@@H](C)C(=O)N1CCC[C@H]1C(=O)N1CCC[C@H]1C(=O)N1CCC[C@H]1C(=O)N[C@@H](CO)C(N)=O` [Example 146] (H-Y[Aib]EGT[αMePhe(2-F)]TSDYSI[αMeL]LDEK([AEEA-AEEA-γGlu-C20 diacid])AQ[Aib]EFIQYLIEGGPSSGAPPPS-NH2): 0.0604 nM and 0.0583 nM.
For `CC[C@H](C)[C@H](NC(=O)[C@H](Cc1ccccc1)NC(=O)[C@H](CCC(=O)O)NC(=O)C(C)(C)NC(=O)[C@H](CCC(N)=O)NC(=O)[C@H](C)NC(=O)[C@H](CCCCNC(=O)COCCOCCNC(=O)COCCOCCNC(=O)CC[C@H](NC(=O)CCCCCCCCCCCCCCCCCCC(=O)O)C(=O)O)NC(=O)[C@H](CCC(=O)O)NC(=O)[C@H](CC(=O)O)NC(=O)[C@H](CC(C)C)NC(=O)[C@](C)(CC(C)C)NC(=O)[C@@H](NC(=O)[C@H](CO)NC(=O)[C@H](Cc1ccc(O)cc1)NC(=O)[C@H](CC(=O)O)NC(=O)[C@H](CO)NC(=O)[C@@H](NC(=O)[C@](C)(Cc1ccccc1F)NC(=O)[C@@H](NC(=O)CNC(=O)[C@H](CCC(=O)O)NC(=O)C(C)(C)NC(=O)[C@@H](N)Cc1ccc(O)cc1)[C@@H](C)O)[C@@H](C)O)[C@@H](C)CC)C(=O)N[C@@H](C)C(=O)N[C@@H](Cc1ccc(O)cc1)C(=O)N[C@@H](CC(C)C)C(=O)N[C@H](C(=O)N[C@@H](CCC(=O)O)C(=O)NCC(=O)NCC(=O)N1CCC[C@H]1C(=O)N[C@@H](CO)C(=O)N[C@@H](CO)C(=O)NCC(=O)N[C@@H](C)C(=O)N1CCC[C@H]1C(=O)N1CCC[C@H]1C(=O)N1CCC[C@H]1C(=O)N[C@@H](CO)C(N)=O)[C@@H](C)CC` [Example 148] (H-Y[Aib]EGT[αMePhe(2-F)]TSDYSI[αMeL]LDEK([AEEA-AEEA-γGlu-C20 diacid])AQ[Aib]EFIAYLIEGGPSSGAPPPS-NH2), the EC50 in assay [1] worked out at 0.0626 nM; in assay [2], 0.043 nM.

(Values after patent US12252524B2, “GIP/GLP1 co-agonist compounds” (Eli Lilly and Company, priority 2018, dated 2025).)
